The results in this text go back to PMC11943115, “GSTD1 Mediates the Tolerance to Abamectin and Beta-Cypermethrin in the Fall Armyworm Spodoptera frugiperda” (Insects, 2025).

The term Km denotes the concentration of substrate that gives half-maximal velocity.

In the assay the target is T1, SfGSTD1 (Spodoptera frugiperda, UniProt A0A9R0F5L2).
T1 construct: gene LOC118269876; not XP_035440580.2, another SfGSTD1 of the literature that clusters with SeGSTD3
T1 sequence (A0A9R0F5L2 1-244): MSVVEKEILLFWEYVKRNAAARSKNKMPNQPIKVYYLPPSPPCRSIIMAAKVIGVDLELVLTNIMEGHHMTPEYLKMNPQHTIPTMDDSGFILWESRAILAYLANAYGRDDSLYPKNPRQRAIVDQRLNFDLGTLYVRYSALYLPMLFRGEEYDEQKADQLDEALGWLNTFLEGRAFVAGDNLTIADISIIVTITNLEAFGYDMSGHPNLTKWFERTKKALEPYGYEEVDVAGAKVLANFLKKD
Put plainly: GSH conjugation, absorbance […] nm. The class given is biochemical. The note with it: 4 mM GSH; CDNB 0.125 to 4 mM.

For `O=[N+]([O-])c1ccc(Cl)c([N+](=O)[O-])c1` [CDNB], the Km turned out to be 421 ± 109 µM.
